This note sets out measurements from ChEMBL document CHEMBL1126495, “A new series of potent LTD4 antagonists in the styrylquinoline class” (Bioorg Med Chem Lett, 1993).

This test addresses T1, Cysteinyl leukotriene receptor 1 (Cavia porcellus, UniProt Q2NNR5).
T1 sequence (Q2NNR5 whole entry): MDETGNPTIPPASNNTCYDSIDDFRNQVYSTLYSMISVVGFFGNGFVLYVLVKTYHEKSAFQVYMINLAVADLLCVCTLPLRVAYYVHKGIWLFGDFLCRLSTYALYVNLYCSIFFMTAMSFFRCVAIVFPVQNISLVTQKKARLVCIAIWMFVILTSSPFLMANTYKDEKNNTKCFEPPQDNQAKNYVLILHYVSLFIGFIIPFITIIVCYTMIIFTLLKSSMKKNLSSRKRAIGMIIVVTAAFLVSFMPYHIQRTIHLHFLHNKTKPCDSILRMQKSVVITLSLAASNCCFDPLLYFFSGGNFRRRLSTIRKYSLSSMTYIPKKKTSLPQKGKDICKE
Description: Inhibition of [3H]LTD4 binding to guinea-pig lung membrane. Format: tissue-based.
`CC(C)(CC[C@H](SCc1ccccc1C(C)(C)O)c1cccc(CCc2ccc3ccc(Cl)cc3n2)c1)CC(=O)O` displayed an IC50 of 0.6 nM.
For `CC(C)(CC[C@@H](SCc1ccccc1C(C)(C)O)c1cccc(/C=C/c2ccc3ccc(Cl)cc3n2)c1)CC(=O)O` the value was 1 nM; for `C[C@H](CCC[C@@H](SCCC(C)(C)O)c1cccc(/C=C/c2ccc3ccc(Cl)cc3n2)c1)C(=O)O`, 0.8 nM; for `CC(C)(O)c1ccccc1CS[C@@H](CCC1(CC(=O)O)CC1)c1cccc(CCc2ccc3ccc(Cl)cc3n2)c1`, 1.4 nM.
For `CC(C)(O)CCCSC(CCC(C)(C)CC(=O)O)c1cccc(/C=C/c2ccc3ccc(Cl)cc3n2)c1` (stereo not drawn) the value was 1.3 nM; for `C[C@H](CCC[C@H](SCCC(C)(C)O)c1cccc(/C=C/c2ccc3ccc(Cl)cc3n2)c1)C(=O)O`, 2 nM; for `CC(CC[C@H](SCCCC(C)(C)O)c1cccc(/C=C/c2ccc3ccc(Cl)cc3n2)c1)CC(=O)O` (stereo partly drawn), 0.5 nM.
For `CC(C)(CC[C@@H](SCc1ccccc1C(C)(C)O)c1cccc(CCc2ccc3ccc(Cl)cc3n2)c1)CC(=O)O` the value was 1.9 nM; for `C[C@H](CCC[C@@H](SCCC(=O)N(C)C)c1cccc(/C=C/c2ccc3ccc(Cl)cc3n2)c1)C(=O)O`, 0.9 nM.
As for `CC(C)(CC[C@H](SCCc1ccccn1)c1cccc(CCc2ccc3ccc(Cl)cc3n2)c1)CC(=O)O`, the IC50 amounted to 2.2 nM.
For `CC(C)(CC[C@H](SCc1ccccn1)c1cccc(CCc2ccc3ccc(Cl)cc3n2)c1)CC(=O)O` the value was 1.6 nM; for `CC(C)(CC[C@H](SCc1ccccc1C(C)(C)O)c1cccc(/C=C/c2ccc3ccc(Cl)cc3n2)c1)CC(=O)O`, 0.6 nM.
For `C[C@H](CCC[C@H](SCCC(=O)N(C)C)c1cccc(/C=C/c2ccc3ccc(Cl)cc3n2)c1)C(=O)O` the value was 2.3 nM.

As usually defined, the IC50 is the midpoint of a concentration-inhibition curve. A high value points to a need for much substance.
